Entries after “also recorded” stand apart in the source; their conditions may differ. Like-named read-outs stand apart in the source and are kept apart here.
Legend:
EGFR WT = target: T1, EGFR WT (Homo sapiens, UniProt P00533); assay: Assay for cell proliferation (CellTiterGlo), Activity for Inhibiting EGFR; format: cell-based; conditions: potency code, 3 days drug
T1 construct: endogenous in cells; host or cells: A431 (+H292)

EGFR NPH = target: T2, EGFR NPH (Homo sapiens, UniProt P00533, INS773NPH); assay: Assay for cell proliferation (BaF3 transformants, CellTiterGlo), Activity for Inhibiting EGFR; format: cell-based; conditions: potency code, 3 days drug
T2 construct: expressed in transfected cells; host or cells: BaF3 (murine pro-B), retroviral pMXs-IRES-Blasticidin, selected for IL-3 independence
Procedure: (§1) Retroviral Production: EGFR mutants were subcloned into pMXs-IRES-Blasticidin (RTV-016, Cell Biolabs, San Diego, Calif.). Retroviral expression vector retrovirus was produced by transient transfection of HEK 293T cells with the retroviral EGFR mutant expression vector pMXs-IRES-Blasticidin (RTV-016, Cell Biolabs), pCMV-Gag-Pol vector and pCMV-VSV-G-Envelope vector. HEK 293T/17 cells were plated in 100 mm collagen coated plate (354450, Corning Life Sciences, Tewksbury, Mass.) (4×10^5 per plate) and incubated overnight. The next day, retroviral plasmids (3 μg of EGFR mutant, 1.0 μg of pCMV-Gag-Pol and 0.5 μg pCMV-VSV-G) were mixed in 500 μl of Optimem (31985, Life Technologies). The mixture was incubated at room temperature for 5 min and then added to Optimem containing transfection reagent Lipofectamine (11668, Invitrogen) and incubated for 20 minutes. Mixture was then added dropwise to HEK 293T cells. The next day the medium was replaced with fresh culture medium and retrovirus was harvested @ 24 and 48 hrs. Generation of EGFR mutant stable cell lines: BaF3 cells (1.5E5 cells) were infected with 1 ml of viral supernatant supplemented with 8 μg/ml polybrene by centrifuging for 30 min at 1000 rpm. Cells were placed in a 37° C. incubator overnight. Cells were then spun for 5 minutes to pellet the cells. Supernatant was removed and cells re-infected a fresh 1 ml of viral supernatant supplemented with 8 μg/ml polybrene by centrifuging for 30 min at 1000 rpm. Cells were placed in 37° C. incubator overnight. […] After 48 hours cells were selected for retroviral infection in 10 μg/ml Blasticidin for one week. Blasticidin resistant populations were washed twice in phosphate buffered saline before plating in media lacking IL-3 to select for IL-3 independent growth.
as §1, with “fresh 1 m1 of viral” for “fresh 1 ml of viral”

EGFR SVD = target: T3, EGFR SVD (Homo sapiens, UniProt P00533, INS770SVD); assay: as above; format: cell-based; conditions: potency code, 3 days drug
T3 construct: expressed in transfected cells; host or cells: BaF3 (murine pro-B), retroviral pMXs-IRES-Blasticidin, selected for IL-3 independence
Procedure: as §1
as §1, with “fresh 1 m1 of viral” for “fresh 1 ml of viral”

EGFR V3 (EGFR-Viii) = target: T4, EGFR V3 (EGFR-Viii) (Homo sapiens, UniProt P00533, DELINS30-297G); assay: as above; format: cell-based; conditions: potency code, 3 days drug
T4 construct: expressed in transfected cells; host or cells: BaF3 (murine pro-B), retroviral pMXs-IRES-Blasticidin, selected for IL-3 independence
Procedure: as §1
as §1, with “fresh 1 m1 of viral” for “fresh 1 ml of viral”

HER2 WT = target: T5, HER2 WT (Homo sapiens, UniProt P04626); assay: Assay for cell proliferation (CellTiterGlo), Activity for Inhibiting HER2; format: cell-based
T5 construct: endogenous in cells; host or cells: BT474

HER2 S310F = target: T6, HER2 S310F (Homo sapiens, UniProt P04626, S310F); assay: Assay for cell proliferation (BaF3 transformants, CellTiterGlo), Activity for Inhibiting HER2; format: cell-based; conditions: potency code, 3 days drug
T6 construct: expressed in transfected cells; host or cells: BaF3 (murine pro-B) transformants

HER2 YVMA = target: T7, HER2 YVMA (Homo sapiens, UniProt P04626, INS775YVMA); assay: as above; format: cell-based; conditions: potency code, 3 days drug
T7 construct: expressed in transfected cells; host or cells: BaF3 (murine pro-B) transformants

HER2 S310F BaF3 tumors = assay: Treatment of mice bearing HER2 mutant tumors, pHER2 and pERK via AlphaLisa; format: in vivo, Athymic nude mice; conditions: 15 mg/kg oral, two day acute dosing; at peak plasma levels
Procedure: Following the second dose, tumors were collected at 2 hours, 5 hours, 12 hours and 24 hours, and analyzed for both pHER2 activity and pERK activity via AlphaLisa. Plasma was also collected at these time points and analayzed for the presence of Compound No. 3 to determine pharmacokinetic profile. The tumor tissue was cut and homogenized using the Precellys Soft Tissue Homogenizing kit (KT03961-1-00.3.2) containing T-PER tissue protein extraction reagent (Thermo Scientific #78510), supplemented with Protease Inhibitor (Sigma P8340), and Phosphatase Inhibitors II and III (Sigma P5726 and P0044). Tissue samples were homogenized in the Precellys machine by spinning two times for one minute each. Sample tubes were centrifuged for 5 min at 15,000 rpm at 4° C. The supernatant was transferred to a fresh microtube and spun again for 5 minutes at 15,000 rpm at 4° C. Supernatant was then transferred to a fresh microtube and placed on ice. The protein concentration of the supernatant was measured using the BCA reagent Kit (Thermo Scientific #23225). Tumor tissue-derived lysates were analyzed for either HER2 activity or EGFR activity by detection of pHER2 (Tyr1221/1222) or pERK (Thr202/Tyr204) phosphosites, respectively, via AlphaLisa. […]

[1] = tested on: HER2-Δ16, HER2-C311R, HER2-S310F, HER4Δ16; assay: Western blot under non-reducing conditions: monomeric and dimeric HER2 and HER4 levels; format: cell-based, Homo sapiens
BaF3-HER2-Δ16 cells = assay: Proliferation of BaF3-HER2-Δ16 cells; conditions: sub-saturating concentrations

T5 sequence (P04626 23-1255): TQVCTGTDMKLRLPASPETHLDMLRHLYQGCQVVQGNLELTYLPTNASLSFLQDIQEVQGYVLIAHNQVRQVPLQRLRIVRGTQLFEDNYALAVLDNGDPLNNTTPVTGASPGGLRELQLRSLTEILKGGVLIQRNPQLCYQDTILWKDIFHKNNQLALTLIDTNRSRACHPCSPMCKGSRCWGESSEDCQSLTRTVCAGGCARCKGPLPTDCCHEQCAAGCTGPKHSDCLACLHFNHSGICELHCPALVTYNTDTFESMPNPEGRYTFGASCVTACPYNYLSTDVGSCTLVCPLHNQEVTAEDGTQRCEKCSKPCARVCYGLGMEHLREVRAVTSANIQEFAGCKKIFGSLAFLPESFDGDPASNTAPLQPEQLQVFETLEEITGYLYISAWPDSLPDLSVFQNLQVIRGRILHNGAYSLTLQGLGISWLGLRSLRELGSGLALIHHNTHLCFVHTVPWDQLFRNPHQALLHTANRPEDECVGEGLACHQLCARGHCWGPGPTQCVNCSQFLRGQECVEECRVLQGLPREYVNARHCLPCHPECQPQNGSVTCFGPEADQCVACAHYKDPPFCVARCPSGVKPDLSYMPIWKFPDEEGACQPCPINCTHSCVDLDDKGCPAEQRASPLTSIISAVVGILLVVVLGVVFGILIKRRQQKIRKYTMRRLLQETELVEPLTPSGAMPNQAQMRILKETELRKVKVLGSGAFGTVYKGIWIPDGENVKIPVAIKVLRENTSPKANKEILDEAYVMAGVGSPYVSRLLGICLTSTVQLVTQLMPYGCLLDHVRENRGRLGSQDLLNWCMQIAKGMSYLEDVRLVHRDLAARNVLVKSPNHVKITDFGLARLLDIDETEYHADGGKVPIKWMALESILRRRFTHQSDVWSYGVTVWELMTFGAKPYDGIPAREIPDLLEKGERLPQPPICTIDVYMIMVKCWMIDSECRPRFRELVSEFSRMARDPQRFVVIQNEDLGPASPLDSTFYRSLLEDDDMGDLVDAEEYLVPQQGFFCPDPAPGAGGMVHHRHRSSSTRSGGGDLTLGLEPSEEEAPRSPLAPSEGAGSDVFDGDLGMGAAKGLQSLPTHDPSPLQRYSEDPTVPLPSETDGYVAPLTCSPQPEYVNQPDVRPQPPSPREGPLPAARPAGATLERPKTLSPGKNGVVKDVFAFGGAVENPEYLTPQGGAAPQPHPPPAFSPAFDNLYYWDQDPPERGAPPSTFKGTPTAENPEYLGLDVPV
T1 sequence (P00533 25-1210): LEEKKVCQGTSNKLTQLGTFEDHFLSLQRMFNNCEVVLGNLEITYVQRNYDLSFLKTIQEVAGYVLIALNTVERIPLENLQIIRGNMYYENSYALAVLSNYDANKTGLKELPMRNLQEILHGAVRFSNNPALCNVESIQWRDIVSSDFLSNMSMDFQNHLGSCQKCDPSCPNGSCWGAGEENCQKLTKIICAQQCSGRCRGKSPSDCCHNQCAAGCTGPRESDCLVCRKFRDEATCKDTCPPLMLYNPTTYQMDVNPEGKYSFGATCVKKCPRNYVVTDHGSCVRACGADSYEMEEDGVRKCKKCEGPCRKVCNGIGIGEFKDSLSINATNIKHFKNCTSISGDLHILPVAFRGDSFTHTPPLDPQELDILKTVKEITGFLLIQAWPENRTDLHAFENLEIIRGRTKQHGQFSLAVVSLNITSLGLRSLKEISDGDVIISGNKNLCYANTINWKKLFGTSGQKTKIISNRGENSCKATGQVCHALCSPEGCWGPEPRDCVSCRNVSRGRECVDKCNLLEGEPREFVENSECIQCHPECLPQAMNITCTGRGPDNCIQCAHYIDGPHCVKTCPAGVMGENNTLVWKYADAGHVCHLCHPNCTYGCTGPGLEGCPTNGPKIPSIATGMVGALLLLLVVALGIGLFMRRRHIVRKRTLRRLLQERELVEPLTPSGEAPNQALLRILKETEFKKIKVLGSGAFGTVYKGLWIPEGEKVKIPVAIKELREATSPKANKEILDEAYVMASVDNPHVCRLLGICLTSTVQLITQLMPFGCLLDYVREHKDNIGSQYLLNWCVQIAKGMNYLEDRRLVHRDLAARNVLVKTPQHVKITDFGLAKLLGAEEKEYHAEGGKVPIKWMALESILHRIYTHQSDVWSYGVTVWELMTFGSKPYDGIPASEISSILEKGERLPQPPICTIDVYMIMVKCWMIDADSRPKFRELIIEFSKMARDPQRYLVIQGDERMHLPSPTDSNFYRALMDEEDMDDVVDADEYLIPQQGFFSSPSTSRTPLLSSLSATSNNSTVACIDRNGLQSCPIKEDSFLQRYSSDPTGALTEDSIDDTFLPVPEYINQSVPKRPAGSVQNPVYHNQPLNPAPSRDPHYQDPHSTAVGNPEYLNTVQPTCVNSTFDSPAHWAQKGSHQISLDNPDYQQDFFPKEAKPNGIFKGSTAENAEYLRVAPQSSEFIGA
T4 sequence (P00533 with tags, fused parts or gaps DELINS30-297G): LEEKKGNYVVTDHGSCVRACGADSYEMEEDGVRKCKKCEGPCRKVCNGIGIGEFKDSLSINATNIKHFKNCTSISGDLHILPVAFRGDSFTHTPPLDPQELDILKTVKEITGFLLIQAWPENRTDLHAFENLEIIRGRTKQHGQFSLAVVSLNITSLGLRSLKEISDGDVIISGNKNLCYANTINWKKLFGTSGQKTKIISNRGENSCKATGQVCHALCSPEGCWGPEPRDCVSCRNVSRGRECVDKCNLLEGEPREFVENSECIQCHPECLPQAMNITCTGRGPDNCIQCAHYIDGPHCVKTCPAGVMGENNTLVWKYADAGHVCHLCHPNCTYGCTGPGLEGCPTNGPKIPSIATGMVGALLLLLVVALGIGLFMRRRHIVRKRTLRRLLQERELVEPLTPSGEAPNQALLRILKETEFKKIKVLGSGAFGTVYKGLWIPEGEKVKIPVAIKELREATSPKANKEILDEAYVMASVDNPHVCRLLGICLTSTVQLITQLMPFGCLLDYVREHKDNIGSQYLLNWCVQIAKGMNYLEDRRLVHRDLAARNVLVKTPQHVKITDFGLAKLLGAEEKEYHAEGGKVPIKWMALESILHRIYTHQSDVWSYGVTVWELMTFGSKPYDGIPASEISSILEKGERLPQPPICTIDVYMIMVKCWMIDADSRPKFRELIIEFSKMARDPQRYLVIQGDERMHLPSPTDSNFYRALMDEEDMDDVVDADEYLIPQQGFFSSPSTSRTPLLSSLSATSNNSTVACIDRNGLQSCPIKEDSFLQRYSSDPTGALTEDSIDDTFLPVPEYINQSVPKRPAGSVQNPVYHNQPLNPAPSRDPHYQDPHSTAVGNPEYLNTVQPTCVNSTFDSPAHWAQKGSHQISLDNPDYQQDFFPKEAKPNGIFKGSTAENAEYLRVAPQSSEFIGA
T6 sequence (P04626 23-1255 S310F): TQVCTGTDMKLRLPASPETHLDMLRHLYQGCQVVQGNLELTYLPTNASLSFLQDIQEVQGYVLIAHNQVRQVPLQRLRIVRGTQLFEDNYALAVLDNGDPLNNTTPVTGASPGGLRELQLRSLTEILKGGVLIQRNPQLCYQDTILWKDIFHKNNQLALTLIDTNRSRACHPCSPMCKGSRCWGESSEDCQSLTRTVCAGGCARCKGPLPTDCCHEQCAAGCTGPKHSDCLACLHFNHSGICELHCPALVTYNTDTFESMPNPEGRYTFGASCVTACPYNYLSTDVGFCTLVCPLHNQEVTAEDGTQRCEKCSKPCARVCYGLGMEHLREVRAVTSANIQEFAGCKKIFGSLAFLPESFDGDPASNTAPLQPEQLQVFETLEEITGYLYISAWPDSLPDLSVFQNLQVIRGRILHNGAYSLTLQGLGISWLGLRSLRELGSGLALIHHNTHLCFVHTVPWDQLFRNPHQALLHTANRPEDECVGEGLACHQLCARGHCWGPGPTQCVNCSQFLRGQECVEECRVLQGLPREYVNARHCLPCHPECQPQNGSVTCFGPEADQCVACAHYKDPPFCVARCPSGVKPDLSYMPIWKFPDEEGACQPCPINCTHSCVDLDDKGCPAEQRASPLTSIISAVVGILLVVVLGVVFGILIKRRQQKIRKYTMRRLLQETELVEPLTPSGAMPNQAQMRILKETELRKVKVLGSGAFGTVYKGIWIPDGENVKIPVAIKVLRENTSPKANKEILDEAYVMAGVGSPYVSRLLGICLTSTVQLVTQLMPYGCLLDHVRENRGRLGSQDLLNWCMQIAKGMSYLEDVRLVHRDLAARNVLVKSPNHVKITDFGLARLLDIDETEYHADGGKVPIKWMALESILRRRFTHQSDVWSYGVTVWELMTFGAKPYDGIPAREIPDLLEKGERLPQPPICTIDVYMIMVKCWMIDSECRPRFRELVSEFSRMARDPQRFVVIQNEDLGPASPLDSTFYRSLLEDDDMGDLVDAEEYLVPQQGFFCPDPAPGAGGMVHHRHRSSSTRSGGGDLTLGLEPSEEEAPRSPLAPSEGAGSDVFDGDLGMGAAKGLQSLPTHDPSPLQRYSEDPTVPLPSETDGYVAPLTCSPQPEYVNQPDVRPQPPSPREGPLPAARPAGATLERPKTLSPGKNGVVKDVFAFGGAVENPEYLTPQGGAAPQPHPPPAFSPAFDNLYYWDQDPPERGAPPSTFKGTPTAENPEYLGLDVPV

IC50 (EGFR WT; Table A (Example 2)) [nM]	IC50 (EGFR WT; Table A) [nM]	IC50 (EGFR NPH; Table A (Example 2)) [nM]	IC50 (EGFR NPH; Table A) [nM]	IC50 (EGFR SVD; Table A (Example 2)) [nM]	IC50 (EGFR SVD; Table A) [nM]	IC50 (EGFR V3 (EGFR-Viii); Table A (Example 2)) [nM]	IC50 (EGFR V3 (EGFR-Viii); Table A) [nM]	IC50 (HER2 WT; 'about ... or less', read-out: IC50 value for inhibiting wild-type HER2) [nM]	IC50 (HER2 WT; Table B (Example 2), potency code, 3 days drug, read-out: HER2 WT) [nM]	IC50 (HER2 WT; Table B, potency code, 3 days drug, read-out: HER2 WT) [nM]	IC50 (HER2 S310F; Table B (Example 2)) [nM]	IC50 (HER2 S310F; Table B) [nM]	IC50 (HER2 YVMA; Table B (Example 2)) [nM]	IC50 (HER2 YVMA; Table B) [nM]	Compound	pERK1/2 (Thr202/Tyr204) in tumors (HER2 S310F BaF3 tumors)	pHER2 (Tyr1221/1222) in tumors (HER2 S310F BaF3 tumors)	covalent dimers of HER2 and HER4 extracellular variants [1]	proliferation of BaF3-HER2-Δ16 cells (BaF3-HER2-Δ16 cells)
200 to 300	200 to 300	10 to 20	10 to 20	10 to 20	10 to 20	10 to 20	10 to 20	≤ 6	< 5	< 5	5 to 10	5 to 10	20 to 30	20 to 30	C=CC(=O)Nc1cc2c(Nc3ccc4c(cnn4Cc4cccc(F)c4)c3)ncnc2cc1OCCN1CCOCC1 [compound 3]	reduction	reduction		
															CNC(=O)CN1CCC(Oc2cc3c(Nc4cccc(Cl)c4F)ncnc3cc2OC)CC1 [sapitinib]			levels of covalent dimers increased; also recorded: induce the expression of covalent dimers; also recorded: induce the formation of covalent dimers; also recorded: dose dependent increase in covalently dimerized receptors	paradoxically stimulate the proliferation

From US20220041613A1, “TYROSINE KINASE INHIBITOR COMPOSITIONS, METHODS OF MAKING AND METHODS OF USE” (Black Diamond Therapeutics, Inc., priority 2018, published 2022)
